What was measured:
[1] = Luminescence measurements of Eu(III) chelates with the ligands; assay type: physicochemical; conditions: Eu(III) complex of the ligand; 10 mM NH3-HCl buffer, pH 8.3
Procedure: FC=Flash chromatography. RT=room temperature. Microwave synthesizer was Initiator system (Biotage). ^1H NMR and ^13C NMR spectra were recorded on a Bruker AVANCE 500 DRX (Bruker, Karlsruhe, Germany) by using SiMe4 as internal standard and chemical shifts δ are in ppm. Mass spectra were recoded on a Voyager DE Pro (Applied Biosystems, Foster City, Calif.) mass spectrometer. HPLC runs were performed by Dionex's Ultimate 3000 system including Dionex's Ultimate 3000 Diode Array Detector. The used column was ThermoHypersil 150×4 mm 5μ Hypersil® ODS. Used eluents were 100 mM TEAA and CH3CN. Runs were performed by using an eluent gradient starting from 75% H2O, 20% 100 mM TEAA and 5% CH3CN and within 30 min to 30% H2O, 20% TEAA and 50% CH3CN. For the HPLC, sample concentration was aprox. 1 mg of chelate in 1 ml water. The sampling volume was 20-25 μl. The instrumentation, measurement and calculation principles for the molar absorptivities (ε), excitation maxima (λexc), luminescence lifetimes (τ), quantum yields (Φ), and triplet stage energies (T) see e.g. Räsänen, M., et al., 2014, J. Luminescence, 146, 211-217.
The luminescence parameters for Eu(III) complexes with ligands 11, 12, 14, 27, 28, and 35 were measured in 10 mM NH3-HCl buffer, pH 8.3. The molar absorptivities (c), excitation maxima (λexc ), luminescence lifetimes (τ), quantum yields (Φ), calculated luminescence yields (ε×Φ) and triplet stage (T) are presented in Table 1.

[2] = Photo-physical properties of chelates conjugated to taurine; assay type: physicochemical; conditions: 50 mM TRIS buffer (pH 7.75)
Procedure: The prepared isothiocyante activated chelates (65 and 79) were conjugated to taurine as described above in Example 68. The products were purified with semi-preparative reversed phase HPLC (RP-18 column). After the product fractions were evaporated the residues were dissolved in 50 mM TRIS buffer.
The measured photo-physical properties excitation wavelengths (λexc), luminescence decay times (τ), molar absorptivities (ε), estimated luminescence yields (εΦ) of the novel chelates (66 and 80) in 50 mM TRIS buffer (pH 7.75) are in the Table 3. The nine dentate label {2,2′,2″,2′″-{[2-(4-isothiocyanato-phenyl)ethylimino]bis(methylene)bis{4-{[4-(α-galactopyranoxy)phenyl]-ethynyl}bis(methylenenitrilo)}tetrakis(acetato)}-europium(III) (von Loden, P., et al., 2003, Anal. Chem. 75, 3193) was used as a reference label.

cTnI = assay: Model cTnI immunoassay with chelate-labelled detection antibodies; conditions: for Abs max: antibody labelled with the chelate
Procedure: Labeling was performed in 10 mM botate buffer, pH 8.6-9.0 using 30-fold molar excess of chelates. Reactions were normally carried out overnight at +4° C. or at room temperature. Labeled antibodies were purified on Superfex 200 HR 10/30 or Superdex 200 HiLoad 26/60 gel filtration columns using Tris-saline-azide […], 9.0 g/L NaCl, and 0.5 g/L NaN3), pH 7.75 as an elution buffer. The fractions containing the antibody were pooled and the europium concentrations measured against europium calibrator. The purified antibody comjugate and the labeling ratio (i.e. chelates per protein) were quantified by calculating the protein yield or by measureing the absorbance at 280 nm and subtracting the absorption caused by the added chelate.
An earlier published nine dentate label {2,2′,2″,2′″-{[2-(4-isothiocyanato-phenyl)ethylimino]bis(methylene)bis{4-{[4-(α-galactopyranoxy)phenyl]ethynyl}-pyridine-bis(methylenenitrilo)}tetrakis(acetato)}europium(III) (von Loden, P., et al., 2003, Anal. Chem. 75, 3193) was used as a reference label.
Two labels 49 and 54 were tested in a model cTnl assay. The cTnl immunoassays were performed by using biotinylated capture cTnl antibodies together with the labelled cTnl detection antibodies described above and according to the main principles described in published method (von Loden, P., et al., 2003, Anal. Chem. 75, 3193). The combined assay/wash buffer contained 5 mmol HEPES, 2.1 g/L NaCl, 0.1 mmol EDTA, 0.055 g/L Tween 20 and 1 g/L Gernall II, pH 7.75. The capture biotinylated antibodies were pre-incubated in assay wells. The standards followed by the detection label antibody diluted in 20 μl and 10 μl assay buffer, respectively, were applied to the wells. After one hour incubation at 36 C, the wells were washed, dried and measured.

[3] = Photo-physical properties of cTnI antibodies labelled with chelate; assay type: physicochemical
Procedure: The Tnl labeled antibodies were prepared as described in Example 61.
The measured photo-physical properties gave the excitation wavelengths (λexc)at 354 nm, a luminescence decay times (τ) of 460 μs molar absorptivities (c) of 142 000 cm^−1M^−1 and luminescence yields (εΦ) of 10 500 cm^−1M^− for the labelled cTnls with the chelate 66 in 50 mM TRIS buffer (pH 7.75)
Dry measurements gave the luminescence yield of 16 500 cm^−1M^−1, which represents estimated luminescence yields based on the signal measurements after dry immunoassay done as described in the Example 61.

[4] = labelled cTnI antibodies, 50 mM TRIS buffer (pH 7.75)

SMILES | calculated luminescence yield ε × Φ [1] | excitation maximum λexc [1] [nm] | luminescence lifetime τ [1] [μs] | molar absorptivity ε [1] | quantum yield Φ [1] | triplet stage T [1] | further results
O=C(O)CN(CC(=O)O)Cc1cc(-c2ccc3c(c2)Cc2ccccc2-3)cc(CN(CC(=O)O)CC(=O)O)n1 [Compound 11] | 4 800 cm^−1M^−1 | 323 | 380 | 104 000 cm^−1M^−1 | 0.046 | 20 000 cm^−1 | 
O=C(O)CN(CC(=O)O)Cc1cc(-c2ccc3c(c2)C(CC(=O)O)(CC(=O)O)c2ccccc2-3)cc(CN(CC(=O)O)CC(=O)O)n1 [Compound 12] | 3 500 cm^−1M^−1 | 328 | 390 | 35 000 cm^−1M^−1 | 0.10 | 20 100 cm^−1 | 
O=C(O)CN(CC(=O)O)Cc1cc(C#Cc2ccc3c(c2)C(CC(=O)O)(CC(=O)O)c2ccccc2-3)cc(CN(CC(=O)O)CC(=O)O)n1 [Compound 14] | 4 200 cm^−1M^−1 | 342 | 355 | 38 200 cm^−1M^−1 | 0.11 | 19 200 cm^−1 | 
O=C(O)CN(CC(=O)O)Cc1cc(C#Cc2ccccc2)cc(CN(CC(=O)O)CC(=O)O)n1 [Ref ligand, 2,2′,2″,2′″-[(4-phenylethynylpyridine-2,6-diyl)bis(methylenenitrilo)]tetrakis-(acetic acid), reference compound] | 1 800 cm^−1M^−1 | 293 | 385 | 26 950 cm^−1M^−1 | 0.067 | 21 600 cm^−1 | 
O=C([O-])COc1cc(OCC(=O)[O-])c(C#Cc2cc(CN(CC(=O)[O-])Cc3cc(C#Cc4ccc5c(c4)C(CC(=O)[O-])(CC(=O)[O-])c4cc(NC(=S)NCCS(=O)(=O)[O-])ccc4-5)cc(CN(CC(=O)[O-])Cc4cc(C#Cc5c(OCC(=O)[O-])cc(OCC(=O)[O-])cc5OCC(=O)[O-])cc(C(=O)[O-])n4)n3)nc(C(=O)[O-])c2)c(OCC(=O)[O-])c1.[Eu+3].[Na+].[Na+].[Na+].[Na+].[Na+].[Na+].[Na+].[Na+].[Na+].[Na+] [Compound 80] |  |  |  |  |  |  | estimated luminescence yield ε x Φ [2]: 5 600 cm^−1M^−1; excitation wavelength λexc [2]: 354 nm; luminescence decay time τ [2]: 290 μs; molar absorptivity ε [2]: 105 000 cm^−1M^−1
O=C([O-])CN(CC(=O)[O-])Cc1cc(C#Cc2ccc3c(c2)C(CC(=O)[O-])(CC(=O)[O-])c2ccccc2-3)cc(CN(CCc2ccc(N=C=S)cc2)Cc2cc(C#Cc3ccc4c(c3)C(CC(=O)[O-])(CC(=O)[O-])c3ccccc3-4)cc(CN(CC(=O)[O-])CC(=O)[O-])n2)n1.[Eu+3].[Na+].[Na+].[Na+].[Na+].[Na+] [Compound 49] |  |  |  |  |  |  | Abs max (cTnI; First test): 348 nm; excitation after coupled in protein (cTnI; label coupled to protein, broad excitation): around 350 nm
O=C([O-])COc1cc(NC(=S)NCCS(=O)(=O)[O-])ccc1C#Cc1cc(CN(CC(=O)[O-])Cc2cc(C#Cc3ccc4c(c3)C(CC(=O)[O-])(CC(=O)[O-])c3ccccc3-4)cc(C(=O)[O-])n2)nc(CN(CC(=O)[O-])Cc2cc(C#Cc3ccc4c(c3)C(CC(=O)[O-])(CC(=O)[O-])c3ccccc3-4)cc(C(=O)[O-])n2)c1.[Eu+3].[Na+].[Na+].[Na+].[Na+].[Na+].[Na+].[Na+] [Compound 66] |  |  |  |  |  |  | estimated luminescence yield ε x Φ [2]: 8 700 cm^−1M^−1; excitation wavelength λexc [2]: 346 nm; luminescence decay time τ [2]: 540 μs; molar absorptivity ε [2]: 100 000 cm^−1M^−1; luminescence yield, dry measurements ([3]; estimated from signal measurements after dry immunoassay): 16 500 cm^−1M^−1; excitation wavelength λexc [3, 4]: 354 nm; luminescence decay time τ [3, 4]: 460 μs; luminescence yield εΦ [3, 4]: 10 500 cm^−1M^−; molar absorptivity [3, 4]: 142 000 cm^−1M^−1
O=C([O-])CN(CC(=O)[O-])Cc1cc(-c2ccc3c(c2)C(CC(=O)[O-])(CC(=O)[O-])c2ccccc2-3)cc(CN(CCc2ccc(N=C=S)cc2)Cc2cc(-c3ccc4c(c3)C(CC(=O)[O-])(CC(=O)[O-])c3ccccc3-4)cc(CN(CC(=O)[O-])CC(=O)[O-])n2)n1.[Eu+3].[Na+].[Na+].[Na+].[Na+].[Na+] [Compound 54] |  |  |  |  |  |  | Abs max (cTnI; Second test): 327 nm

— patent publication US10365286B2, “Chromophoric structures for lanthanide chelates” (RADIOMETER TURKU OY, priority 2014, dated 2019)
